These are literature values, as cited in patent US20240041861A1, “COMPOSITIONS AND METHODS FOR TREATMENT AND PROPHYLAXIS OF VIRAL INFECTIONS” (priority 2020, published 2024).

≈ marks a conversion by molar mass, not a printed value. Read-outs that look alike come from different tables or passages of the source.

For data set [1] the following is noted: in vivo.
For data set [2] the following is noted: in vivo. The source holds these as a separate data set.
Assay in data set [3]: not given
The source holds these as a separate data set.

For data set [4] the following is noted: human, in vivo.
The target of data set [5] is PDE5 (Homo sapiens, UniProt O76074).
In data set [6] the test system is NS3/4A HCV protease GT1b.
Data set [7] concerns replicon GT1b.
Assay in data set [8]: not given
The source holds these as a separate data set.

Broadly, the half-life is how long it takes for the measured level to halve. As to `CCN(CCO)CCCC(C)Nc1ccnc2cc(Cl)ccc12` (centres unmarked) [hydroxychloroquine], for the setting “in vivo”, the half-life result is listed as “about 40 days” and the “mean fraction of the dose absorbed” value is listed as 0.74. For the same molecule, where the note is “in vivo, po”, the “dose excreted as the parent drug in urine” value is reported as “approximately 10%”. In addition, the half-life (in vivo, po, 200 mg) is 22.4 days. The “mean peak blood concentration” value (single 200 mg oral dose of PLAQUENIL, healthy males, blood) is reported as 129.6 ng/mL. Also, the half-life (single 200 mg oral dose, healthy males, plasma) was 123.5 days. Besides, in data set [1], the “fraction of the dose absorbed” value is recorded as 30-100% and the “renal clearance of unchanged drug” value is 16-30%. Moreover, in data set [1] (po), the absorption half-life was 0.12 to 0.17 days, the terminal half-life is 40 to 50 days and the “time of peak plasma levels” value was 3 to 4 h.

As for `CCCc1nn(C)c2c(=O)[nH]c(-c3cc(S(=O)(=O)N4CCN(C)CC4)ccc3OCC)nc12` [sildenafil], in [2], the “mean steady state volume of distribution (Vss)” value is reported as 105 L and the terminal half lives result is “about 4 hours”. Further, the “bound to plasma proteins” value in data set [3] is listed as “approximately 96%”.

Turning to `CC(C)c1nc(CN(C)C(=O)N[C@H](C(=O)N[C@@H](Cc2ccccc2)C[C@H](O)[C@H](Cc2ccccc2)NC(=O)OCc2cncs2)C(C)C)cs1` [ritonavir], in [4], the “plasma levels relative to those obtained after the ritonavir dose of 600 mg twice daily” value was “less than 7%”.

Take `CCCc1nn(C)c2c(=O)[nH]c(-c3cc(S(=O)(=O)N4CCNCC4)ccc3OCC)nc12` [N-desmethyl metabolite]: the “in vitro potency for PDE5 relative to the parent drug” value in data set [5] was “approximately 50%”. In addition, the terminal half lives result in [2] is “about 4 hours”. Moreover, the “bound to plasma proteins” value in data set [3] was “approximately 96%”.

As a reminder, the IC50 is the point on the concentration scale where inhibition reaches its midpoint. What is called EC50 is the midpoint of the concentration-response curve. Consider `CC(C)(C)OC(=O)N[C@H]1CCCCC/C=C\[C@@H]2C[C@@]2(C(=O)NS(=O)(=O)C2CC2)NC(=O)[C@@H]2C[C@@H](OC(=O)N3Cc4cccc(F)c4C3)CN2C1=O` [Danoprevir], for which the IC50 in [6] is 0.2 to 0.4 nM. The EC50 in data set [7] is 1.6 nM.

In general, solubility refers to the concentration that dissolves in the medium under given conditions. For `CC(C)Nc1cccnc1N1CCN(C(=O)c2cc3cc(NS(C)(=O)=O)ccc3[nH]2)CC1` [delavirdine free base], the figures for the solubility in data set [8] (pH 1), in data set [8] (pH 2) and in [8] (pH 7.4) were 2940 µg/mL (≈ 6440 µM), 295 µg/mL (≈ 646 µM) and 0.81 µg/mL (≈ 1.77 µM), respectively.
